Assay results published in patent publication US20050282863A1, “Novel-N substituted dihydrobenzothiepino, dihydrobenzoxepino and tetrahydro benzocyclohepta indoles as selective estrogen receptor modulators” (Council of Scientific & Industrial Research, priority 2004, published 2005).
Like-named read-outs stand apart in the source and are kept apart here.

Key:
[1] = test system: adult female rats; experiment: Post-coital antifertility efficacy in adult female rats; assay type: in vivo, rat; details: oral; for responders at 10 mg/kg: Rattus norvegicus, 240 h
From the text: Adult female rats are caged overnight with coeval males of proven fertility and their vaginal smears are checked on the following morning. The day of presence of spermatozoa in the vaginal smear is taken as day 1 of pregnancy. Mated rats are isolated and randomized into various treatment groups and treated orally with the compound of invention or the vehicle on days 1-7/1-5 post-coitum. Animals of all the groups are autopsied on day 10 post-coitum and number and status of corpora lutea and implantation sites in each rat are recorded. The compounds of the present invention are considered active if there is complete absence of implantations in the uterus of all rats, in comparison to presence of normal implantations in the uterus of rats of vehicle control group.

[2] = test system: chick fetal bones in culture; experiment: Inhibition in PTH-induced resorption of 45Ca from chick fetal bones in culture (antiresorptive activity in vitro); assay type: cell-based; details: Gallus gallus, 96 h, 100 μM; PTH-induced 45Ca resorption, 96 h culture; read-out: T/C ratio
Protocol: 5 μl of each concentration are used for evaluation of antiresorptive activity in vitro. In control experiments, 5 μl of appropriate solvent is used in lieu of the test compound. Femur bones are isolated from chick embryos on day 11 post-ovulation. The adhering soft connective tissue is completely removed. Each femur bone is then placed in a drop of phosphate buffered saline (PBS) and is transferred to BGJb culture medium containing ^45CaCl2 and incubated for 2 h. Labeled femur bones are washed 2-3 times with PBS and transferred to BGJb medium containing parathyroid hormone and cultured for 96 h in the presence or absence of the compound of invention or the vehicle in BGJb medium. Contralateral femur of each fetus serves as corresponding control. Culture medium with the respective treatment in each well is changed after 48 h. On termination of the culture at 96 h, bones are transferred to 0.1 N HCl for 24 h. Radioactivity due to ^45Ca in the spent medium collected at 48 and 96 h of culture and HCl extract at 96 h of culture is quantified by Liquid Scintillation Spectrophotometer in 10 ml of the scintillation fluid. Bone resorbing activity is expressed as percentage of ^45Ca released into the culture medium and the effect of the compound of invention as percent of the corresponding contra-lateral control or T/C ratio as shown below: [formula]
Appropriate solvents are selected from solvents like water, physiological saline, phosphate buffered saline, phosphate buffer, DMSO alone or in a suitable combination thereof.

[3] = test system: immature ovariectomized rats; experiment: Estrogen antagonistic activity: inhibition in 17α-ethynylestradiol induced uterine weight gain in immature ovariectomized rats; assay type: in vivo, rat; details: daily dose 10 mg/kg with 0.02 mg/kg 17-alfa-ethynylestradiol, 3 days; for inhibition in vivo at 10 mg/kg/day: Rattus norvegicus, 72 h, read-out: Percent inhibition in 17α-ethynylestradiol induced uterine weight gain
Protocol: Twenty-one-day-old immature female rats are bilaterally ovariectomized under light ether anaesthesia and after post-operative rest for 7 days, are randomized into different treatment groups. Each rat receives the compounds of the invention and 0.02 mg/kg dose of 17-alfa-ethynylestradiol in 10% ethanol-distilled water once daily for 3 consecutive days on days 28-30 of age. A separate group of animals receiving only 17-alfa-ethynylestradiol (0.02 mg/kg) in 10% ethanol-distilled water for similar duration are used for comparison. At autopsy on day 31 of age, vaginal smear of each rat is taken and uterus is carefully excised, gently blotted, weighed and fixed for histology and histomorphometry using image analysis. Inhibition in 17-alfa-ethynylestradiol-induced premature opening of vagina, cornification of vaginal epithelium, increase in uterine fresh weight, total uterine and endometrial area and uterine luminal epithelial cell height are taken as parameters for evaluation of estrogen antagonistic activity.

[4] = test system: immature ovariectomized rats; experiment: Estrogen agonistic activity: increase in uterine weight in immature ovariectomized rats; assay type: in vivo, rat; details: 3 days, percent of ovariectomized + vehicle group; for change in vivo at 10 mg/kg / change in vivo at 3 mg/kg: Rattus norvegicus, 72 h; for change in vivo at 3 mg/kg: daily dose 3 mg/kg
Protocol: Twenty-one-day-old immature female rats are bilaterally ovariectomized under light ether anaesthesia and, after post-operative rest for 7 days, are randomized into different treatment groups. Each rat receives the compound of the invention once daily for 3 consecutive days on days 28-30 of age. A separate group of animals receiving only the vehicle for similar duration serves as control. A autopsy 24 h after the last treatment on day 31 of age, vaginal smear of each rat is taken and uterus is carefully exised, gently blotted, weighed and fixed for histology and histomorphometry using image analysis. Premature opening of vagina, cornification of vaginal epitelium, increase in uterine fresh weight, total uterine and endometrial area and uterine luminal epithelial cell height are taken as parameters for evaluation of estrogen agonistic activity in comparision to rats of vehicle control group.

[5] = test system: MCF-7 cells; experiment: Antiproliferative/cytotoxic activity in cultured MCF-7 cells (SRB assay); assay type: cell-based; details: Homo sapiens, MCF7, 48 h, MCF-7, 48 h
Protocol: The procedure is based on the following methods: New calorimetric assay for anticancer drug screening, Skehan et al., J Natn Cancer Inst, 82,1107, 1990 and Feasibility of a high-flux anticancer drug screen using a diverse panel of cultured human tumor cell lines, J Natn Cancer Inst, 83,757, 1991.
A fully confluent flask of MCF-7 cells in trypsinized and 10^4 cells/well are plated in a 96 welled flat bottomed plate in 200 μl Minimum Essential Medium (MEM), pH 7.4 and allowed to attach for 24 h at 37° C. in a humidified CO2 incubator. Subsequently, the compound of invention dissolved in DMSO or ethanol is added at a specified concentration and further incubated for 48 h as before. The cells are then fixed in 50 μl cold 50% TCA and incubated for 1 h at 4° C. The supernatant is discarded and the plate is washed five times with deionized water and air-dried. 100 μl of 0.4% (w/v) Sulforhodamine B (SRB) in 1% acetic acid is added to each well and incubated at room temperature for 30 minutes. Unbound SRB is removed by five washes with chilled 1% acetic acid and the plate is air-dried. 200 μl of unbuffered 10 mM Tris base is added to solublize the bound stain for 5 minutes at room temperature and O.D. is read at 560 nm in a plate reader. The graph is plotted between O.D. and concentration and LC50 is calculated with respect to tamoxifen, which is used as a positive control.

[6] = molecular target: T1, estrogen receptors (Rattus norvegicus, UniProt P06211); experiment: Relative binding affinity (RBA) to estrogen receptors, 3H-estradiol competition assay; design: key: % of 17-beta-estradiol binding affinity (estradiol = 100); details: relative to 17-beta-estradiol (=100, percentage value); rat uterine cytosol, 3H-E2, 18 hrs at 4° C.
T1 construct: Aliquot of uterine cytosol (200 μl; 2 uteri per ml) prepared in TEA buffer; from tissue; host or cells: uterine cytosol of immature estradiol-primed 20-21 day old rats
T1 sequence (P06211 1-600): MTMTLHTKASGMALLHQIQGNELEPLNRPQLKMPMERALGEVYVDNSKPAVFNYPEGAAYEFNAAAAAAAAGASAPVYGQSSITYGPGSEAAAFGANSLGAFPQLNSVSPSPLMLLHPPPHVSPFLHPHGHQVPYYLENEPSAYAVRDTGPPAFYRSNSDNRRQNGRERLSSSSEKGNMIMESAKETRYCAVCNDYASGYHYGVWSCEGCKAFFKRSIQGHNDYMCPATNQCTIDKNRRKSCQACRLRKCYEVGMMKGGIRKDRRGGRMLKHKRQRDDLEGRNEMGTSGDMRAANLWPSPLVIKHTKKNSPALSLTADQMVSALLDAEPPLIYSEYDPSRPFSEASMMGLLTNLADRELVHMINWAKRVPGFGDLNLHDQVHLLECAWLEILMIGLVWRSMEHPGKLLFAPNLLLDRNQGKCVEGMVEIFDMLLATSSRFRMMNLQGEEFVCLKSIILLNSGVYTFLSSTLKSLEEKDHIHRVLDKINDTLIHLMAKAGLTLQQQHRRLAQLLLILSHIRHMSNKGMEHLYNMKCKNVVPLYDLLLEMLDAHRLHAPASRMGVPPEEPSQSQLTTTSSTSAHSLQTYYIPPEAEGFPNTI
Protocol: The relative binding affinity (RBA) of the compounds for estrogen receptor is determined by competition assay, employing ^3H-estradiol (^3H-E2) as the radioligand. The test ligands and ^3H-E2 are incubated at 4° C. with cystol estrogen receptors obtained from uteri of immature estradoil-primed (1 μg/rat 24 h before autopsy) 20-21 days old rats. Aliquot of uterine cytosol (200 μl; 2 uteri per ml) prepared in TEA buffer (10 mM Tris, 1.5 mM EDTA, 0.02% sodium azide, pH 7.4) are incubated in duplicate with a fixed concentration of ^3H-E2 in the absence or presence of various concentrations of the competitor substance dissolved in 30 μl of the TEA buffer containing DMF as co-solvent (final concentration of DMF in the incubation mixture never exceeded 5%) for 18 hrs at 4° C. At the end of this period, dextran coated charcoal (5% Norit 0.5% dextran) suspension in 100 μl of TEA buffer is added to each tube, briefly vortexed and allowed to stand for 15 minutes at 4° C. The mixture is centrifuged at 800 g for 10 minutes and the supernatants counted for radioactivity in 10 ml of a dioxane-based scintillation fluid. RBA of the text compound is computed from a graph plotted between percent bound radioactivity verses log concentration of the test substance. […] This when multiplied with 100 gives the percentage value designated as RBA.

[7] = daily dose 10 mg/kg, days 1-7 post-coitum

Structure (SMILES) | activity at 100 µM [2] [%] | inhibition in vivo at 10 mg/kg/day [3] [%] | % Efficacy [1, 7] | change in vivo at 10 mg/kg ([4]; daily dose 10 mg/kg) [%] | CC50 ([5]; read-out: LC50, Test-4) [µM] | RBA [6] | also measured
c1ccc2c(c1)OCCc1c-2n(CCCCCN2CCCCC2)c2ccccc12 [Example number 49, 12-[5-(Piperidine-1-yl)pentyl]-6,7-dihydro-12H-benzoxepino[5,4-b]indole] | 63 | – | – | – | – | – | responders at 10 mg/kg [1, 7]: 100%; % Efficacy ([1]; daily dose 5 mg/kg, days 1-5 post-coitum): Inactive
c1ccc2c(c1)OCCc1c-2n(Cc2ccc(OCCN3CCCCC3)cc2)c2ccccc12 [Example number 56, 12-[4-(2-Piperidin-1-yl-ethoxy)benzyl]-6,7-dihydro-12H-benzoxepino[5,4-b]indole] | 103 | 12.8 | Inactive | 15.4 | – | – | –
c1ccc2c(c1)SCCc1c-2n(CCCCCN2CCCCC2)c2ccccc12 [Example number 11, 12-[5-(Piperidine-1-yl)pentyl]-6,7-dihydro-12H-benzothiepino [5,4-b]indole] | 77 | 2 | – | 50 | 8.3 | – | responders at 10 mg/kg [1, 7]: 50%
Oc1ccc2c(c1)SCCc1c-2n(CCCCCN2CCCCC2)c2ccccc12 [Example number 24, 3-Hydroxy-12-[5-(piperidine-1-yl)pentyl]-6,7-dihydro-12H-benzothiepino [5,4-b]indole] | 78 | – | Inactive | – | 27 | 10.75 | –
c1ccc2c(c1)SCCc1c-2n(Cc2ccc(OCCN3CCCCC3)cc2)c2ccccc12 [Example number 39, 12-[4-(2-Piperidin-1-yl-ethoxy)benzyl]-6,7-dihydro-12H-benzothiepino [5,4-b]indole] | 85 | 3.7 | Inactive | 83.3 | – | – | –
Oc1ccc2c(c1)SCCc1c-2n(CCCCCN2CCCCC2)c2ccc(O)cc12 [Example number 35, 3,9-Dihydroxy-12-[5-(piperidine-1-yl)pentyl]-6,7-dihydro-12H-benzothiepino [5,4-b]indole] | 99 | – | Inactive | – | 40 | <0.001 | –
c1ccc2c(c1)OCCc1c-2n(CCCCCCN2CCCCC2)c2ccccc12 [Example number 51, 12-[6-(Piperidine-1-yl)hexyl]-6,7-dihydro-12H-benzoxepino[5,4-b]indole] | – | 14 | Inactive | 20 | – | 0.059 | CC50 ([5]; read-out: LC50, Test-1): 22.3 µM; CC50 ([5]; read-out: LC50, Test-3): 12.8 µM; change in vivo at 3 mg/kg [4]: 21.9%
c1ccc2c(c1)SCCc1c-2n(CCCCCN2CCCC2)c2ccccc12 [Example number 12, 12-[5-(Pyrrolidine-1-yl)pentyl]-6,7-dihydro-12H-benzothiepino [5,4-b]indole] | 78 | – | Inactive | – | – | 0.88 | CC50 ([5]; read-out: LC50, Test-1): 63 µM; change in vivo at 3 mg/kg [4]: 3.4%
Oc1ccc2c(c1)SCCc1c-2n(CCCCCN2CCCC2)c2ccc(O)cc12 [Example number 36, 3,9-Dihydroxy-12-[5-(pyrrolidine-1-yl)pentyl]-6,7-dihydro-12H-benzothiepino [5,4-b]indole] | 118 | – | – | – | 60 | <0.001 | –
CCCCN(C)CCCCCn1c2c(c3ccccc31)CCSc1ccccc1-2.O=C(O)/C=C/C(=O)O [Example number 16, 12-[5-(N-butylmethylamino)pentyl]-6,7-dihydro-12H-benzothiepino [5,4-b]indole fumaric acid Salt] | – | – | – | – | – | <0.001 | Percent inhibition in 17α-ethynylestradiol induced uterine weight gain [3]: 2.00%; Percent increase in uterine weight ([4]; daily dose 10 mg/kg): 2.00%
